Several values for one entry are separate records, joined by “and”; a condition that tells them apart may be missing. Identical values can stand only once.
Assays:
[1] = test system: HepG2 cells; assay: In vitro cytotoxic activity, MTT assay; format: cell-based, human; settings: 24 h treatment, read-out: IC50, compound concentration required to inhibit cell growth by 50%
Method: The obtained 1,8-naphthalimide–carborane conjugates were investigated for their in vitro antitumor activity by examining their cytotoxic effects using the MTT tetrazolium dye assay against the human cancer cell line HepG2 established from hepatocellular carcinoma. IC50 refers to the drug concentration (µM) required to inhibit cell growth by 50%.
The cytotoxic properties of the synthesized compounds were evaluated using the human hepatocellular carcinoma cell line HepG2 established from hepatocellular carcinoma. The HepG2 cell line was purchased from ECACC (Salisbury, UK). Cells were grown in EMEM medium (Corning®) supplemented with 10% heat-inactivated fetal bovine serum (FBS) (Corning®) and antibiotics (Corning®), at 37 °C in a 5% CO2 atmosphere. Upon reaching 80–90% confluency, cells were detached with the trypsin (Corning®) and transferred into 96-well microplates at a density of 12 × 10^3. After overnight incubation at 37 °C in a humidified atmosphere containing 5% CO2, the cells were treated for the next 24 h with compounds. The stock solution of each compound was prepared in DMSO at 10 mM. The cytotoxicity was evaluated by the MTT assay. […] Subsequently, the medium was aspirated and replaced with 3-(4,5-dimethylthiazol-2-yl)-2,5-diphenyltetrazolium bromide (MTT) dye solution (50 µL, 0.5 mg/mL). After 3 h incubation, the resulting MTT formazan crystals were dissolved in DMSO (100 µL). To ensure the complete dissolution of formazan, the plates were shaken on an orbital microplate shaker at 1000 rpm for 15 min (Thermoshaker NeoLab 7–0055, Bionovo, Legnica, Poland). The optical density of each well was then measured on a VICTOR Nivo multimode plate reader at a wavelength of 570 nm. Each experiment consisted of 6 replications of each concentration, and each experiment was repeated three times independently. The results were calculated as a percentage of control group viability. The IC50 values were determined using a non-linear regression from the plot of % viability against log dose of compounds by using GraphPad Prism 6.0 software (GraphPad, San Diego, CA, USA).

[2] = test system: HepG2 cells; assay: Analysis of 8-oxo-dG in cellular DNA by HPLC-UV-ED; format: cell-based, human; settings: HepG2, 24 h; for [8-oxo-dG ± SD] × 10^6, 8-oxo-dG level in cellular DNA: concentration corresponding to total IC50, control 2.88 ± 0.17
Method: We also estimated 8-oxo-dG levels in DNA since 2-deoxyguanosine is most susceptible to oxidation among nucleosides and might serve as an oxidative DNA damage marker within the cells. […] Both compounds generate much higher oxidative disturbance in DNA than mitonafide, resulting in approximately 4- and 6-fold more 8-oxo-dG residues, respectively.
HepG2 cells (1 × 10^6) were seeded onto flasks (25 cm^2) and cultured for 16 h in the EMEM medium (Corning®) supplemented with 10% FBS (Corning®) and antibiotics (Sigma).Subsequently, the cells were treated for 24 h with the tested compounds at a concentration corresponding to their total IC50 values. Next, the cells were trypsinized, rinsed twice with PBS, and pelleted by centrifugation (200× g, 3 min). Total DNA was isolated from the treated cells and untreated control cells using a Genomic mini DNA isolation kit (A&A Biotechnology, Gdynia, Poland) according to the manufacturer′s protocol. The quality of the total DNA was assessed spectrophotometrically.
DNA (1 μg) was dissolved in sodium acetate buffer (10 μL, 40 mM, pH 5.3) containing ZnCl2 (0.1 mM) and digested with nuclease P1 (3 μg). Samples were incubated for 3 h at 37 °C. Subsequently, Tris–HCl (2 μL, 1 M, pH 8.0), alkaline phosphatase (1 U) were added and incubated for 2 h at 37 °C. All DNA hydrolysates were ultrafiltered using cut-off 10,000 Da filter units.
8-Oxo-dG and dG in hydrolysates were determined using HPLC-UV followed by electrochemical detection and ED (Coulochem III Electrochemical Detector, ESA, Inc., Chelmsford, MA, USA). DNA hydrolysates were chromatographed isocratically using ammonium acetate (50 mM pH 5.3)/methanol (93:7, v/v). Detection of dG was performed at 254 nm. Detection of 8-oxo-dG was performed by the electrochemical detector: guard cell + 400 mV, detector 1: +130 mV (as a screening electrode), detector 2: + 350 mV (as a measuring electrode set to sensitivity of 500 nA/V). All results are expressed as the mean ± SD.
To determine 8-oxo-dG levels, guanosine amount was necessary. The total number of 8-oxo-dG residues in the genome was calculated using the unique formula [54].

[3] = test system: calf thymus DNA (ct-DNA); assay: Melting temperature (Tm) measurements of ct-DNA, thermal denaturation; format: binding; settings: r = [compound]/[ct-DNA] = 0.3; pH 7.0, 20 mM cacodylate buffer; Tm of ct-DNA alone 74 °C
Method: The melting temperature (Tm) of DNA is defined as the temperature at which 50% of the DNA is in form of single strands forming randomly coiled structures. DNA melting is measured by the absorbance of UV light (260 nm) by the DNA solution, where the amount of UV light absorbed is proportional to the fraction of non-bonded base pairs. The majority of DNA-binding small molecules known thus far stabilize duplex DNA against heat denaturation. A high, drug-induced increase in the Tm of DNA is generally viewed as an excellent criterion to select DNA ligands and is a common feature of several anticancer drugs such as intercalators (a significant increase in Tm = 3–8 °C is observed for strong intercalation) and alkylators. The reverse situation (destabilization of DNA to facilitate its denaturation) may be an attractive option to identify therapeutic agents acting on the DNA structure.
Our study conducted Tm measurement to estimate the impact of 1,8-naphthalimides bearing the carborane cluster on DNA stabilization (Table 1, Figures S249–S253, ESI).
The measurements were performed by adding aliquots of DMSO stock solution of the tested compounds to the buffer solution (pH 7.0, 20 mM, cacodylate buffer, DMSO content of the final solution = 0.24–0.36%). The Tm curves were collected at r = 0.3 (r = [compound]/[ct-DNA]) to assure the dominant binding mode. Thermal melting curves were determined by following the absorption change at 260 nm as a function of temperature by using a GBC Cintra10 UV–vis spectrometer (Dandenong, Australia) equipped with a GBC Thermocell Peltier Power Supply (Dandenong, Australia) using a 1 cm path length cell. The absorbance of the samples was monitored at 260 nm from 30 to 90 °C (95 °C for compounds 54–61) with a heating rate of 1 °C/min. Tm values are the midpoints or the transition curves determined from the maximum of the first derivative. The ΔTm values were calculated by subtracting the Tm of the free nucleic acid from the Tm of the sample. Every Tm value reported in this study was average at least three measurements. The error in Tm was 0.5 °C.

| Substance | IC50 [1] | fold increase in number of 8-oxo-dG residues per 10^6 dG as compared to control [2] | fold more 8-oxo-dG residues than mitonafide [2] | [8-oxo-dG ± SD] × 10^6, 8-oxo-dG level in cellular DNA [2] | ΔTm ct-DNA [3] |
| --- | --- | --- | --- | --- | --- |
| N-[2-N-Pyrrolidinyl)ethyl]-4-[(6-(2-(1,7-dicarba-closo-dodecaborane-1-yl)-ethylamino)hexyl)amino]-1,8-naphthalimide [Compound 61] | 4.79 ± 0.06 µM | > 43 fold | 4 fold and ~6 fold | 123.92 ± 2.59 per 10^6 dG | 12.33 °C |
| N-[2-(Dimethylamino)ethyl]-4-[(6-(2-(1,7-dicarba-closo-dodecaborane-1-yl)-ethylamino)hexyl)amino]-1,8-naphthalimide [Compound 59] | 5.35 ± 1.36 µM | – | – | 81.64 ± 0.67 per 10^6 dG | 8.33 °C |
| N-[2-(Dimethylamino)ethyl]-4-[(2-(2-(1,7-dicarba-closo-dodecaborane-1-yl)-ethylamino)ethyl)amino]-1,8-naphthalimide [Compound 55] | 3.43 ± 0.28 µM | – | – | 74.85 ± 1.38 per 10^6 dG | 9.67 °C |
| N-[2-(Dimethylamino)ethyl]-4-[(6-(2-(1,2-dicarba-closo-dodecaborane-1-yl)-ethylamino)hexyl)amino]-1,8-naphthalimide [Compound 58] | 3.87 ± 1.03 µM | – | – | 96.58 ± 0.56 per 10^6 dG | 11.00 °C |
| N-[2-N-Pyrrolidinyl)ethyl]-4-[(6-(2-(1,2-dicarba-closo-dodecaborane-1-yl)-ethylamino)hexyl)amino]-1,8-naphthalimide [Compound 60] | 30.9 ± 2.66 µM | over 57 fold | approximately 4 fold | 164.35 ± 6.39 per 10^6 dG | 7.67 °C |
| N-[2-(Pyrrolidin-1-yl)ethyl]-4-[(2-(2-(1,2-dicarba-closo-dodecaborane-1-yl)-ethylamino)ethyl)amino]-1,8-naphthalimide [Compound 56] | 12.1 ± 1.03 µM | – | – | 52.31 ± 0.51 per 10^6 dG | 7.67 °C |
| N-[2-(Pyrrolidin-1-yl)ethyl]-4-[(2-(2-(1,7-dicarba-closo-dodecaborane-1-yl)-ethylamino)ethyl)amino]-1,8-naphthalimide [Compound 57] | 3.12 ± 0.04 µM | – | – | 57.54 ± 0.73 per 10^6 dG | 11.00 °C |
| N-[2-(Dimethylamino)ethyl]-4-[(2-(2-(1,2-dicarba-closo-dodecaborane-1-yl)-ethylamino)ethyl)amino]-1,8-naphthalimide [Compound 54] | 5.49 ± 0.38 µM | – | – | 43.17 ± 0.75 per 10^6 dG | 7.67 °C |

Source: paper PMC9101373, “Design of DNA Intercalators Based on 4-Carboranyl-1,8-Naphthalimides: Investigation of Their DNA-Binding Ability and Anticancer Activity” (International Journal of Molecular Sciences, 2022)
